Assay results reported in US11352396B2, “Antimicrobial peptides and methods of using same” (Zoetis Services LLC, priority 2017, dated 2022).

How the values were obtained:
S. aureus ATCC 29213 = assay type: cell-based; set-up: key to SA 29213: MIC in μM (lowest conc. with no visible growth); details: S. aureus 29213, Table 6
Method: (§1) Peptides according to SEQ ID NOs as listed in Table 1 were prepared by a commercial manufacturer (CS Bio, Menlo Park, Calif.) using solid phase synthesis. Antimicrobial activity was assessed by determining the Minimal Inhibitory Concentration (MIC) against S. aureus and E. coli. Briefly, Microbroth MICs were performed using CLSI methodology (VET01-S2). For S. aureus and E. coli ATCC strains, TSA with 5% lysed horse blood agar was used for overnight culturing at 37° C. ambient air. A 0.5 mM stock for each peptide was made with cell culture water, 0.01% acetic acid and serially diluted and spotted (10 μL) in a 96-well plate for in assay dose titration concentration of 50 μM to 0.05 μM. 0.5 McFarland Standard of each strain was diluted 1:250 in Mueller-Hinton Broth (MHB). 90 μL of culture suspension was then added upon drug in the 96-well plate for overnight incubation for 18-20 hours. The MIC was determined visually at the first well of no visible growth at the corresponding concentration.

E. coli ATCC 25922 = assay type: cell-based; details: E. coli 25922, Table 6
Method: as §1

[1] = test system: MSSP (Methicillin-Susceptible Staphylococcus pseudintermedius); experiment: MIC against selected strains of MSSP; assay type: cell-based; set-up: MIC MSSP 49051 / MIC MSSP 81923 / MIC MSSP 84250 / Effect on MSSP 86000 / Effect on MSSP 72036 / Effect on MSSP 78032: unit not given beside the values; Effect on MSSP 71990 / Effect on MSSP 86001 / Effect on MSSP 72191 / Effect on MSSP 76986 / Effect on MSSP 77378 / Effect on MSSP 81923 / Effect on MSSP 84250 / Effect on MSSP 84658: unit: µM; details: for SP 49051: S. pseudintermedius 49051, Table 6; for Effect on MSSP 71990: strain 71990, Table 5; for Effect on MSSP 72036: strain 72036, Table 5; for Effect on MSSP 72191: strain 72191, Table 5; for Effect on MSSP 76986: strain 76986, Table 5; for Effect on MSSP 77378: strain 77378, Table 5; for Effect on MSSP 78032: strain 78032, Table 5; for Effect on MSSP 81923: strain 81923, Table 5; for Effect on MSSP 84250: strain 84250, Table 5; for Effect on MSSP 84658: strain 84658, Table 5; for Effect on MSSP 86000: strain 86000, Table 5; for Effect on MSSP 86001: strain 86001, Table 5
Summary of the method: (§2)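 MIC read by eye as the first well showing no growth after 18–20 h incubation. Cultures at 0.5 McFarland were diluted 1:250 in Mueller-Hinton broth and exposed to peptide over 50 μM–0.05 μM in the assay, per CLSI VET01-S2 microbroth method.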

[2] = test system: MRSP (Methicillin-Resistant Staphylococcus pseudintermedius); experiment: MIC against selected strains of MRSP; assay type: cell-based; set-up: key to MIC MRSP 72192 / MIC MRSP 76923 / MR 71994 / Mr 88493 / MR 72035 / MR 72192 / MR 76923 / MR 79882 / MR 80279 / MR 81926 / MR 86002 / MR 87665: MIC in μM (visual, first well with no growth); details: for MR 71994: MRSP strain 71994, Table 6; for MR 72035: MRSP strain 72035, Table 6; for MR 72192: MRSP strain 72192, Table 6; for MR 76923: MRSP strain 76923, Table 6; for MR 79882: MRSP strain 79882, Table 6; for MR 80279: MRSP strain 80279, Table 6; for MR 81926: MRSP strain 81926, Table 6; for MR 86002: MRSP strain 86002, Table 6; for MR 87665: MRSP strain 87665, Table 6; for Mr 88493: MRSP strain 88493, Table 6
Summary of the method: as §2

[3] = test system: Canine-derived epithelial keratinocyte (CPEK) cells; assay type: cell-based
Summary of the method: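 Viability was read by CellTiter-Glo luminescence after overnight exposure (37 °C, 5% CO2) of canine keratinocytes to a peptide range of 50–0.05 μM. Percent effect used phosphate buffer as the zero control and 0.1% Triton X-100 as the full-effect control.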

cRBC = assay type: cell-based, canine
Summary of the method: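 Percent lysis, measured by absorbance at 405 nm, used 1% Triton X-100 as full effect and phosphate buffer as zero. Peptides spanned 50 µM–0.05 µM and were held with plasma-depleted washed erythrocytes at 37 °C for 1 h.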

Row | Substance | SA 29213 (S. aureus ATCC 29213) | EC 25922 (E. coli ATCC 25922) [µM] | SP 49051 [1] | Effect on MSSP 71990 [1] | Effect on MSSP 72036 [1] | Effect on MSSP 72191 [1] | Effect on MSSP 76986 [1] | Effect on MSSP 77378 [1] | Effect on MSSP 78032 [1] | Effect on MSSP 81923 [1] | Effect on MSSP 84250 [1] | Effect on MSSP 84658 [1] | Effect on MSSP 86000 [1] | Effect on MSSP 86001 [1] | MR 71994 [2] | MR 72035 [2] | MR 72192 [2] | MR 76923 [2] | MR 79882 [2] | MR 80279 [2] | other results
1 | 99 (KWCFFVCYRGICYRRCRD; Artificial Antimicrobial peptide) [compound 99] | 6.2 | 1.6 | 3.1 | 1.6 | 1.6 | 3.1 | 1.6 | 1.6 | 1.6 | 1.6 | 3.1 | 3.1 | 3.1 | 1.6 | 1.6 | 3.1 | 3.1 | 1.6 | 1.6 | 1.6 | MR 81926 [2]: 3.1; MR 86002 [2]: 3.1; MR 87665 [2]: 1.6; Mr 88493 [2]: 1.6; CPEK (50 μM) [3]: 19.9; cRBC (50 μM) (cRBC): 100.0
2 | 100 (KWCFWVCYRGICYRRCRD; Artificial Antimicrobial peptide) [compound 100] | 6.2 | 0.8 | 1.6 | 1.6 | 1.6 | 3.1 | 1.6 | 3.1 | 1.6 | 1.6 | 1.6 | 1.6 | 1.6 | 1.6 | 1.6 | 3.1 | 1.6 | 1.6 | 1.6 | 1.6 | MR 81926 [2]: 1.6; MR 86002 [2]: 1.6; MR 87665 [2]: 1.6; Mr 88493 [2]: 3.1; CPEK (50 μM) [3]: 29.5; cRBC (50 μM) (cRBC): 100.0
3 | 102 (KWCFRACYRGICYRRCRD; Artificial Antimicrobial peptide) [compound 102] | 6.2 | 1.6 | 1.6 | 1.6 | 1.6 | 3.1 | 1.6 | 0.8 | 1.6 | 1.6 | 1.6 | 1.6 | 1.6 | 1.6 | 3.1 | 3.1 | 1.6 | 1.6 | 1.6 | 1.6 | MR 81926 [2]: 1.6; MR 86002 [2]: 1.6; MR 87665 [2]: 1.6; Mr 88493 [2]: 3.1; CPEK (50 μM) [3]: −2.1; cRBC (50 μM) (cRBC): 23.9
4 | 103 (KWCFRVCKRGICYRRCRD; Artificial Antimicrobial peptide) [compound 103] | 25 | 6.2 | 3.1 | 3.1 | 3.1 | 3.1 | 3.1 | 3.1 | 3.1 | 3.1 | 6.2 | 3.1 | 3.1 | 3.1 | 3.1 | 3.1 | 3.1 | 3.1 | 3.1 | 3.1 | MR 81926 [2]: 3.1; MR 86002 [2]: 3.1; MR 87665 [2]: 3.1; Mr 88493 [2]: 3.1; CPEK (50 μM) [3]: −0.5; cRBC (50 μM) (cRBC): 7.9
